Columns and labels:
PBP4^TO [1] = biological target: T1, PBP4^TO (Candidatus Thiosymbion oneisti, UniProt Z9LUN3GEC2); assay: Bocillin-FL labelling, SDS-PAGE fluorescence; format: binding; set-up: His-tagged, expressed in cytoplasm of E. coli SF100 (plasmid pJW06, pET302 vector named); gene 1245 nt, 414 aa; dimers and higher oligomers on native PAGE; settings: pH 7.5, 50 mM NaCl, 10 mM MgCl2, 28 °C, 30 min; covalent
T1 sequence (Z9LUN3GEC2 31-414 limits assumed): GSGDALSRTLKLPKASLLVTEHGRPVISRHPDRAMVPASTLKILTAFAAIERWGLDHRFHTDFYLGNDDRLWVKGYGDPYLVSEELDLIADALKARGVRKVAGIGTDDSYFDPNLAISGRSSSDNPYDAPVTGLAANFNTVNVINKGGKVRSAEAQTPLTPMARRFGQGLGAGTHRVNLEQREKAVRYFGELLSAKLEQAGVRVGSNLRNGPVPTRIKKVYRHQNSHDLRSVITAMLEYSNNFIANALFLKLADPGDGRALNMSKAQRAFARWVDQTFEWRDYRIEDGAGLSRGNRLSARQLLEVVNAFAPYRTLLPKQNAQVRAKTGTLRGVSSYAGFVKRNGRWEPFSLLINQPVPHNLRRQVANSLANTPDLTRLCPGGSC

PBP4^TO [2] = biological target: T1, PBP4^TO; assay: Bocillin-FL competition, SDS-PAGE fluorescence; settings: pH 7.5, 50 mM NaCl, 10 mM MgCl2, 28 °C, 20 min before 15 μg/mL Bocillin-FL (30 min)

SMILES: CC1=CC(C)=[N+]2C1=Cc1ccc(CCC(=O)Nc3ccc(OCC(=O)N[C@@H]4C(=O)N5[C@@H]4SC(C)(C)[C@@H]5C(=O)O)cc3)n1[B-]2(F)F [Bocillin-FL]
- Bocillin-FL labelling, SDS-PAGE fluorescence (PBP4^TO [1]): Purified PBP4^TO protein was detectable after Bocillin-FL labeling

SMILES: NC(=O)c1cc[n+](CC2=C(C(=O)[O-])N3C(=O)[C@@H](NC(=O)[C@@H](c4ccccc4)S(=O)(=O)O)[C@H]3SC2)cc1 [cefsulodin]
- Bocillin-FL competition, SDS-PAGE fluorescence (PBP4^TO [2]; weak binder): cefsulodin, PBP2 inhibitor mecillinam, PBP4 inhibitor cephalexin

SMILES: CC1(C)S[C@@H]2[C@H](N=CN3CCCCCC3)C(=O)N2[C@H]1C(=O)O [mecillinam]
- Bocillin-FL competition, SDS-PAGE fluorescence (PBP4^TO [2]; weak binder): PBP2 inhibitor mecillinam, PBP4 inhibitor cephalexin

SMILES: C[C@@H](O)[C@H]1C(=O)N2C(C(=O)O)=C(S[C@@H]3CN[C@H](C(=O)N(C)C)C3)[C@H](C)[C@H]12 [meropenem]
- Bocillin-FL competition, SDS-PAGE fluorescence (PBP4^TO [2]; possible allosteric second site at high concentration): does present some affinity for PBP4^TO, whereas Bocillin-FL intensity is enhanced with high-concentration treatment

SMILES: CC1(C)S[C@@H]2[C@H](NC(=O)Cc3ccccc3)C(=O)N2[C@H]1C(=O)O [penicillin G]
- Bocillin-FL competition, SDS-PAGE fluorescence (PBP4^TO [2]): penicillin G had a similar affinity for PBP4^TO as for PBP4^EC

Reference: paper PMC7999549, “PBP4 Is Likely Involved in Cell Division of the Longitudinally Dividing Bacterium Candidatus Thiosymbion Oneisti” (Antibiotics, 2021)
